Reference: ChEMBL document CHEMBL5154928, “Structure-Aided Design, Synthesis, and Biological Evaluation of Potent and Selective Non-Nucleoside Inhibitors Targeting Protein Arginine Methyltransferase 5” (J Med Chem, 2022)
Activity calls are given as the source filed them. The rule behind the calls is not given here.

What was measured:
[1] = target: T1, Protein arginine N-methyltransferase 5 (Homo sapiens, UniProt O14744); assay: Displacement of [3H]-SAM from PRMT5 (unknown origin) using peptide substrate preincubated for 15 mins followed by substrate addition for 60 mins by radioactive biochemical assay
A-375 [2] = assay: Antiproliferation activity against human A-375 cells assessed as cell growth inhibition incubated for 5 days by CCK-8 assay; conditions: A-375, 120 h
[3] = target: T1, Protein arginine N-methyltransferase 5; assay: Displacement of [3H]-SAM from PRMT5 (unknown origin) at 10 uM using peptide substrate preincubated for 15 mins followed by substrate addition for 60 mins by radioactive biochemical assay relative to control
[4] = Metabolic stability in human liver microsomes assessed as half life incubated for 10 mins measured up to 60 mins in presence of NADPH by LC-MS/MS analysis; format: ADME, Microsome
[5] = target: T1, Protein arginine N-methyltransferase 5; assay: Inhibition of PRMT5 in human A-375 cells assessed as decrease in […] levels measured after 48 hrs by Western blot analysis; format: cell-based; conditions: dose 0.5-8 µM, DDE = dose-dependent effect
MDA-MB-453 = assay: Antiproliferation activity against human MDA-MB-453 cells assessed as cell growth inhibition incubated for 5 days by CCK-8 assay; format: functional, cell-based; conditions: dose <= 10.0 µM, time 5.0 day, DDE = dose-dependent effect
[6] = target: T1, Protein arginine N-methyltransferase 5; assay: Competitive inhibition of PRMT5 (unknown origin) in presence of MTA
Mus musculus [7] = assay: In vivo inhibition of PRMT5 in human A-375 cells xenografted in BALB/c mouse assessed as reduction in H3R8me2s levels in tumor tissue at 75 mg/kg, po qd for 19 days measured after 3 weeks by Western blot analysis; format: functional, organism-based; conditions: time 19.0 day
SNU-449 = assay: Antiproliferation activity against human SNU-449 cells assessed as cell growth inhibition incubated for 5 days by CCK-8 assay; format: functional, cell-based; conditions: dose <= 10.0 µM, time 5.0 day, DDE = dose-dependent effect
[8] = target: T1, Protein arginine N-methyltransferase 5; assay: Competitive inhibition of PRMT5 (unknown origin) at 0.001 to 100000 nM using histone H4 (1 to 21 residues) as substrate incubated for 120 mins in presence of different concentrations of SAM by AlphaLISA assay; conditions: dose 0.001-100000 nM
Mus musculus [9] = assay: In vivo inhibition of PRMT5 in human A-375 cells xenografted in BALB/c mouse assessed as reduction in sDMA levels in tumor tissue at 75 mg/kg, po qd for 19 days measured after 3 weeks by Western blot analysis; format: functional, organism-based; conditions: time 19.0 day
SNU-423 = assay: Antiproliferation activity against human SNU-423 cells assessed as cell growth inhibition incubated for 5 days by CCK-8 assay; format: functional, cell-based; conditions: dose <= 10.0 µM, time 5.0 day, DDE = dose-dependent effect
Mus musculus [10] = assay: In vivo inhibition of PRMT5 in human A-375 cells xenografted in BALB/c mouse assessed as reduction in H4R3me2s levels in tumor tissue at 75 mg/kg, po qd for 19 days measured after 3 weeks by Western blot analysis; format: functional, organism-based; conditions: time 19.0 day
CHL-1 = assay: Antiproliferation activity against human CHL-1 cells assessed as cell growth inhibition incubated for 5 days by CCK-8 assay; format: functional, cell-based; conditions: dose <= 10.0 µM, time 5.0 day, DDE = dose-dependent effect
A-375 [11] = assay: Induction of apoptosis in human A-375 cells incubated for 48 hrs by Annexin-V FITC/PI staining based flow cytometry analysis; format: functional, cell-based; conditions: dose 0.5-4 µM, DDE = dose-dependent effect
MDA-MB-231 = assay: Antiproliferation activity against human MDA-MB-231 cells assessed as cell growth inhibition incubated for 5 days by CCK-8 assay; format: functional, cell-based; conditions: dose <= 10.0 µM, time 5.0 day, DDE = dose-dependent effect
MOLM-13 = assay: Antiproliferation activity against human MOLM-13 cells assessed as cell growth inhibition incubated for 5 days by CCK-8 assay; format: functional, cell-based; conditions: dose <= 10.0 µM, time 5.0 day, DDE = dose-dependent effect
MV4-11 = assay: Antiproliferation activity against human MV4-11 cells assessed as cell growth inhibition incubated for 5 days by CCK-8 assay; format: functional, cell-based; conditions: dose <= 10.0 µM, time 5.0 day, DDE = dose-dependent effect
[12] = Half life in Sprague-Dawley rat at 10 mg/kg, po measured for 0.25 to 24 hrs by LC-MS/MS analysis; format: ADME, organism-based; conditions: in vivo, time 0.25-24 hrs
[13] = Oral bioavailability in Sprague-Dawley rat at 10 mg/kg, measured for 0.25 to 24 hrs by LC-MS/MS analysis; format: ADME, organism-based; conditions: in vivo, time 0.25-24 hrs
[14] = Cmax in mouse at 10 mg/kg, po measured for 0.25 to 24 hrs by LC-MS/MS analysis; format: ADME, organism-based; design: time lower 0.25 hrs, dose 10 mg/kg, time upper 24 hrs, route po; conditions: in vivo
[15] = AUC (0 to infinity) in mouse at 3 mg/kg, iv measured for 0.25 to 24 hrs by LC-MS/MS analysis; format: ADME, organism-based; design: time upper 24 hrs, time lower 0.25 hrs, dose 3 mg/kg, route iv; conditions: in vivo
[16] = Volume of distribution at steady state in mouse at 3 mg/kg, iv measured for 0.25 to 24 hrs by LC-MS/MS analysis; format: ADME, organism-based; conditions: in vivo, time 0.25-24 hrs, read-out: Vdss
[17] = Half life in mouse at 3 mg/kg, iv measured for 0.25 to 24 hrs by LC-MS/MS analysis; format: ADME, organism-based; conditions: in vivo, time 0.25-24 hrs
[18] = Clearance in mouse at 3 mg/kg, iv measured for 0.25 to 24 hrs by LC-MS/MS analysis; format: ADME, organism-based; conditions: in vivo, time 0.25-24 hrs
[19] = Cmax in Sprague-Dawley rat at 10 mg/kg, po measured for 0.25 to 24 hrs by LC-MS/MS analysis; format: ADME, organism-based; design: time lower 0.25 hrs, dose 10 mg/kg, time upper 24 hrs, route po; conditions: in vivo
[20] = Oral bioavailability in mouse at 10 mg/kg, measured for 0.25 to 24 hrs by LC-MS/MS analysis; format: ADME, organism-based; conditions: in vivo, time 0.25-24 hrs
[21] = AUC (0 to infinity) in Sprague-Dawley rat at 10 mg/kg, po measured for 0.25 to 24 hrs by LC-MS/MS analysis; format: ADME, organism-based; design: dose 10 mg/kg, time upper 24 hrs, time lower 0.25 hrs, route po; conditions: in vivo

T1 sequence (O14744 whole entry): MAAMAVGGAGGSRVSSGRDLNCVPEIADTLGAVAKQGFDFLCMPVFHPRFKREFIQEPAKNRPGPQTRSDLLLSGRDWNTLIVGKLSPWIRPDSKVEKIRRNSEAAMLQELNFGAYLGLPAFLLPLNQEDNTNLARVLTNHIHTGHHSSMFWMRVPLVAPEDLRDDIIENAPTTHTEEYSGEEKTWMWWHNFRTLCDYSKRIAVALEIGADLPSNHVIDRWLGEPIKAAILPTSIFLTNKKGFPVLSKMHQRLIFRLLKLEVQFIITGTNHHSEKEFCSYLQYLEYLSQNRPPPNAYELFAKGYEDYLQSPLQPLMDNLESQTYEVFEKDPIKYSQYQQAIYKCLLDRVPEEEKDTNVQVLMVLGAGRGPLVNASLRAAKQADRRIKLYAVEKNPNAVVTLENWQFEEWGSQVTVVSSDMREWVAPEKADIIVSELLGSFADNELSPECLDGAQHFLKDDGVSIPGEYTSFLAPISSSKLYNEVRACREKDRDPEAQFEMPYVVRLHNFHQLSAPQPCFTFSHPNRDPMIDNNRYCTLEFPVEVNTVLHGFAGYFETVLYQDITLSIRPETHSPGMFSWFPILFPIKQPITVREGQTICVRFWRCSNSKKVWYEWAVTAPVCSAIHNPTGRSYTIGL

| SMILES | IC50 [1] | IC50 (A-375 [2]) | other results |
| --- | --- | --- | --- |
| C[C@@H](Oc1ccc(-c2nc3c(C4=CCNCC4)ncnc3[nH]2)cc1)c1ccccc1 | 114 nM | 7580 nM |  |
| Nc1ncnc2[nH]c(-c3ccc(OCc4ccccc4)cc3)nc12 | 59.4 nM |  | inhibition [3]: 84.4% |
| CC(Oc1ccc(-c2nc3c(C4=CCNCC4)ncnc3[nH]2)c(F)c1)c1ccccc1 (racemic) | 234 nM | 7500 nM |  |
| Cn1cc(-c2ncnc3[nH]c(-c4ccc(OCc5ccccc5)cc4)cc23)cn1 | 119 nM |  |  |
| CN(C)CCN(C)c1ncnc2[nH]c(-c3ccc(OCc4ccccc4)cc3)cc12 | 17.3 nM |  |  |
| c1ccc(COc2ccc(-c3cc4c(N5CCCNCC5)ncnc4[nH]3)cc2)cc1 | 10.4 nM |  |  |
| c1ccc(COc2ccc(-c3nc4c(N5CCOCC5)ncnc4[nH]3)cc2)cc1 | 44.7 nM |  |  |
| Cc1cc(-c2cc3c(C4=CCNCC4)ncnc3[nH]2)ccc1O[C@@H](C)c1ccccc1 | 80.9 nM | 8260 nM | half-life [4]: 56.8 min |
| CC(Oc1ccc(-c2cc3c(C4=CCNCC4)ncnc3[nH]2)cc1)c1ccccc1 (racemic) | 43.5 nM | 2480 nM | half-life [4]: 26 min |
| Nc1ncnc2[nH]c(-c3ccc(OCc4ccccc4)cc3)cc12 | 83.9 nM |  | inhibition [3]: 81.9% |
| CC1(O)CCN(c2ncnc3[nH]c(-c4ccc(OCc5ccccc5)cc4)cc23)CC1 | 88.8 nM |  |  |
| c1ccc(COc2ccc(-c3cc4c(N5CCN(C6COC6)CC5)ncnc4[nH]3)cc2)cc1 | 40 nM |  |  |
| CC(Oc1ccc(-c2nc3c(C4=CCNCC4)ncnc3[nH]2)cc1)c1ccccc1 (racemic) | 37.1 nM | 7170 nM |  |
| C[C@H](Oc1ccc(-c2cc3c(C4=CCNCC4)ncnc3[nH]2)c(F)c1)c1ccccc1 | 22.1 nM | 1750 nM | half-life [4]: 42.3 min |
| c1ccc(COc2ccc(-c3cc4c(NC5CCNCC5)ncnc4[nH]3)cc2)cc1 | 22.3 nM |  |  |
| Nc1ncnc2c1ccn2Cc1ccc(Oc2ccccc2)cc1 |  |  | inhibition [3]: 14.1% |
| Cc1cc(O[C@@H](C)c2ccccc2)ccc1-c1cc2c(C3=CCNCC3)ncnc2[nH]1 | 32.8 nM | 3390 nM | half-life [4]: 47.3 min |
| Nc1ncnc2c1ncn2-c1ccc(OCc2ccccc2)cc1 |  |  | inhibition [3]: 20.2% |
| Nc1ncnc2c1ccn2-c1ccc(OCc2ccccc2)cc1 |  |  | inhibition [3]: 10.5% |
| Nc1ncnc2c1ccn2Cc1cccc(Oc2ccccc2)c1 |  |  | inhibition [3]: 15.5% |
| C1=C(c2ncnc3[nH]c(-c4ccc(OCc5ccccc5)cc4)cc23)CCNC1 | 8 nM |  | half-life [4]: 2.99 min |
| C[C@@H]1CN(c2ncnc3[nH]c(-c4ccc(OCc5ccccc5)cc4)cc23)C[C@H](C)N1 | 21.7 nM |  |  |
| C[C@H](Oc1ccc(-c2nc3c(C4=CCNCC4)ncnc3[nH]2)c(F)c1)c1ccccc1 | 79.6 nM | 5420 nM | half-life [4]: 41.3 min |

| SMILES | IC50 [1] | IC50 (A-375 [2]) | other results |
| --- | --- | --- | --- |
| CN1CCN(c2ncnc3[nH]c(-c4ccc(OCc5ccccc5)cc4)cc23)CC1 | 27.5 nM |  |  |
| C[C@@H](Oc1ccc(-c2cc3c(C4=CCNCC4)ncnc3[nH]2)cc1)c1ccccc1 | 47.7 nM | 2570 nM | half-life [4]: 18.3 min |
| Nc1ncnc2c1ncn2Cc1ccccc1 |  |  | inhibition [3]: 15.6% |
| CN1CCCN(c2ncnc3[nH]c(-c4ccc(OCc5ccccc5)cc4)cc23)CC1 | 16.7 nM |  |  |
| C[C@H](Oc1ccc(-c2nc3c(C4=CCNCC4)ncnc3[nH]2)cc1)c1ccccc1 | 34.5 nM | 5960 nM | half-life [4]: 70.1 min |
| C[C@@H](Oc1ccc(-c2nc3c(C4=CCNCC4)ncnc3[nH]2)c(F)c1)c1ccccc1 | 157 nM | 8690 nM |  |
| CCN1CCN(c2ncnc3[nH]c(-c4ccc(OCc5ccccc5)cc4)cc23)CC1 | 71.3 nM |  |  |
| C[C@@H](Oc1ccc(-c2cc3c(C4=CCNCC4)ncnc3[nH]2)c(F)c1)c1ccccc1 | 103 nM | 6490 nM |  |
| O=C(NC[C@H](O)CN1CCc2ccccc2C1)c1cc(NC2COC2)ncn1 |  |  | inhibition [5]: Dde |
| C1=C(c2ncnc3[nH]c(-c4ccc(OCc5ccccc5)cc4)nc23)CCNC1 | 14.2 nM |  | half-life [4]: 2.09 min |
| C[C@H](Oc1ccc(-c2cc3c(C4=CCNCC4)ncnc3[nH]2)cc1)c1ccccc1 |  |  | Activity (MDA-MB-453): Dde; Activity [6]: Active; Activity (Mus musculus [7]): Active; Activity (SNU-449): Dde; Activity [8]: Active; Activity (Mus musculus [9]): Active; Activity (SNU-423): Dde; Activity (Mus musculus [10]): Active; inhibition [5]: Dde; Activity (CHL-1): Dde; Activity (A-375 [11]): Dde; Activity (MDA-MB-231): Dde; Activity (MOLM-13): Dde; Activity (MV4-11): Dde |
| c1ccc(COc2ccc(-c3cc4c(N5CCC6(CC5)COC6)ncnc4[nH]3)cc2)cc1 | 51 nM |  |  |
| Nc1ncnc2c1ccn2Cc1ccccc1 |  |  | inhibition [3]: 18.1% |
| C[C@H](Oc1ccc(-c2cc3c(C4=CCNCC4)ncnc3[nH]2)cc1F)c1ccccc1 | 23.9 nM | 3500 nM | half-life [4]: 56.2 min |
| c1ccc(COc2ccc(-c3cc4c(N5CCNCC5)ncnc4[nH]3)cc2)cc1 | 11.4 nM |  |  |
| c1ccc(COc2ccc(-c3cc4c(N5CCOCC5)ncnc4[nH]3)cc2)cc1 | 55 nM |  |  |
| c1ccc(COc2ccc(-c3cc4c(-c5cn[nH]c5)ncnc4[nH]3)cc2)cc1 | 113 nM |  |  |
| COc1cc(O[C@@H](C)c2ccccc2)ccc1-c1cc2c(C3=CCNCC3)ncnc2[nH]1 | 193 nM | 7920 nM |  |
| C[C@H](Oc1ccc(-c2cc3c(C4=CCNCC4)ncnc3[nH]2)cc1)c1ccccc1.Cl |  |  | half-life [12]: 177 min; bioavailability [13]: 23.7%; Cmax [14]: 128 ng/mL; AUC [15]: 464 h/ng/mL; Vd [16]: 47.7 L/kg; half-life [17]: 283 min; clearance [18]: 153 mL/min/kg; Cmax [19]: 27.7 ng/mL; bioavailability [20]: 46.2%; AUC [21]: 205 h/ng/mL |
| O=C1CN(c2ncnc3[nH]c(-c4ccc(OCc5ccccc5)cc4)cc23)CCN1 | 50.8 nM |  |  |
| CC(Oc1ccc(-c2cc3c(C4=CCNCC4)ncnc3[nH]2)c(F)c1)c1ccccc1 (racemic) | 30.4 nM | 4620 nM |  |
| c1ccc(COc2ccc(-c3nc4c(N5CCNCC5)ncnc4[nH]3)cc2)cc1 | 11.5 nM |  |  |
